Data taken from ChEMBL document CHEMBL1123686, “Esters of N,N-disubstituted 2-hydroxyacetamides as a novel highly biolabile prodrug type for carboxylic acid agents” (J Med Chem, 1987).
≈ marks a conversion by molar mass, not a printed value.

How the values were obtained:
[1] = (§1) Half life of ester hydrolysis in 50% human plasma ( pH of 7.4) at 37 degree Centigrade; conditions: 50% human plasma, pH 7.4
[2] = Second order rate constant for hydroxide ion catalyzed by hydrolysis at 37 degree Centigrade
physchem [3] = test: physchem
physchem [4] = test: physchem; remark: listed apart in the source
[5] = Half life of ester hydrolysis in 50% human plasma ( pH of 7.4) at 37 degree Centigrade.; format: ADME, organism-based; conditions: pH 7.4
Homo sapiens [6] = organism: Homo sapiens; test: as §1; conditions: pH 7.4
Homo sapiens [7] = organism: Homo sapiens; conditions: Plasma, pH 7.4
Description: Ability to undergo in vitro ester hydrolysis in 80% human plasma ( pH of 7.4) at 37 degree Celsius expressed as half life of methyl ester hydrolysis

Homo sapiens [8] = organism: Homo sapiens; conditions: Plasma, pH 7.4; remark: listed apart in the source
Description: Ability to undergo in vitro ester hydrolysis in 80% human plasma ( pH of 7.4) at 37 degree Celsius expressed as half life of N,N-diethylglycolamide ester hydrolysis

| SMILES | half-life [1] [min] | kOH [2] [M⁻¹ s⁻¹] | solubility (physchem [3]) [µg/mL] | logD (physchem [4]; 0.01 M HCl) | further results |
| --- | --- | --- | --- | --- | --- |
| CCOC(=O)CN(C)C(=O)COC(=O)c1ccccc1 | 0.22 |  |  |  |  |
| O=C(OCC(=O)N(CCO)CCO)c1ccccc1 | 0.42 | 0.23 | 720000 (≈ 2690 mM) |  |  |
| CN(CCO)C(=O)COC(=O)c1ccccc1 | 0.2 | 0.268 |  |  |  |
| C=CCN(CC=C)C(=O)COC(=O)c1ccccc1 [BENZOIC ACID DIALLYLCARBAMOYLMETHYL ESTER] |  | 0.307 | 710 (≈ 2.74 mM) |  | T1/2 (Homo sapiens [6]): 0.08 min; logD (physchem [4]; octanol/water): 2.34 |
| CCCCN(CCCC)C(=O)COC(=O)c1ccccc1 [BENZOIC ACID DIBUTYLCARBAMOYLMETHYL ESTER] | 3.1 | 0.188 | 80 (≈ 0.275 mM) |  |  |
| CCN(CC)C(=O)COC(=O)c1ccccc1 [BENZOIC ACID DIETHYLCARBAMOYLMETHYL ESTER] |  | 0.273 | 2000 (≈ 8.5 mM) |  | T1/2 (Homo sapiens [6]): 0.04 min |
| CN(C)C(=O)COC(=O)c1ccccc1 [BENZOIC ACID DIMETHYLCARBAMOYLMETHYL ESTER] | 0.15 | 0.325 | 8800 (≈ 42.5 mM) |  |  |
| COc1ccc2c(c1)c(CC(=O)O)c(C)n2C(=O)c1ccc(Cl)cc1 [INDOMETHACIN] |  |  |  |  | T1/2 (Homo sapiens [7]): 150 h; T1/2 (Homo sapiens [8]): 25 min |
| O=C(O)c1ccccc1O [SALICYLIC ACID] |  |  |  |  | T1/2 (Homo sapiens [7]): 17.6 h; T1/2 (Homo sapiens [8]): 0.08 min |

Continued, in another order:

| half-life [1] [min] | kOH [2] [M⁻¹ s⁻¹] | solubility (physchem [3]) [µg/mL] | logD (physchem [4]; 0.01 M HCl) | SMILES | further results |
| --- | --- | --- | --- | --- | --- |
| 4.2 | 0.855 | 320 (≈ 1.36 mM) | 2.26 | CC(C)(C)NC(=O)COC(=O)c1ccccc1 |  |
| 104 | 0.25 |  | 0.67 | CN(CC(=O)O)C(=O)COC(=O)c1ccccc1 |  |
| 0.16 | 0.273 |  |  | CCN(CCO)C(=O)COC(=O)c1ccccc1 |  |
| 12.7 | 0.357 |  |  | CN1CCN(C(=O)COC(=O)c2ccccc2)CC1 |  |
| 0.12 | 0.297 | > 200000 |  | CN(C)CCN(C)C(=O)COC(=O)c1ccccc1.Cl |  |
|  | 1.32 | 4100 (≈ 22.9 mM) | 0.09 | NC(=O)COC(=O)c1ccccc1 [BENZOIC ACID CARBAMOYLMETHYL ESTER] | half-life [5]: 31 min |
| 0.14 | 0.237 |  |  | CCCN(CCC)C(=O)COC(=O)c1ccccc1 [BENZOIC ACID DIPROPYLCARBAMOYLMETHYL ESTER] |  |
| 11.5 | 1.1 | 1200 (≈ 5.79 mM) | 1.28 | CCNC(=O)COC(=O)c1ccccc1 [BENZOIC ACID ETHYLCARBAMOYLMETHYL ESTER] |  |
| 9.3 | 1.42 | 3700 (≈ 19.2 mM) | 0.99 | CNC(=O)COC(=O)c1ccccc1 [BENZOIC ACID METHYLCARBAMOYLMETHYL ESTER] |  |
| 11.2 | 0.868 | 640 (≈ 2.89 mM) | 1.88 | CCCNC(=O)COC(=O)c1ccccc1 [BENZOIC ACID PROPYLCARBAMOYLMETHYL ESTER] |  |
